Consider 16 molecules from patent publication US20240398805A1, “QUINAZOLINE DERIVED COMPOUNDS AS EGFR INHIBITORS AND THEIR USES THEREOF” (ACCUTAR BIOTECHNOLOGY INC., priority 2021, published 2024).

As a reminder, the GI50 is the concentration giving 50% growth inhibition. Low readings indicate greater sensitivity of the cells, high ones lower sensitivity of the cells.

What all share (type): cell-based
In one assay the test system is HCC827 cells. Description: Cell growth inhibition (CellTiter-Glo, 3 days) in HCC827. To be noted: Homo sapiens, 72 h, 3 days after administration. On the procedure:
(§1) 2. Cell Growth Inhibition for HCC827, HCC827-SVD, HCC827-ASV, HCC827-YVMA and A431.
(§2) HCC827(ATCC), HCC827-SVD, HCC827-ASV, HCC827-YVMA were seeded in 96-well plates at 5000 cells/well in 90 μl of RPMI growth medium containing 10% FBS and 1% Penicillin Streptomycin. A431 (ATCC) cells were seed in 96-well plates at 5000 cells/well in 90 μl of DMEM growth medium containing 10% FBS and 1% Penicillin Streptomycin. Cells were incubated at 3700 overnight. The following day, the test compound was administered to the cells by using 1 Ox compound stock solution prepared in growth medium at various concentrations. After administration of the compound, cells were then incubated at 3700 for 3 days. Before CeIlTiter-Glo assay, the plates were equilibrated at room temperature for approximately 10 minutes. 100 ul of CelTiter-Glo® Reagent (Promega) was added to each well. The plates were then incubated at room temperature for 10 minutes and luminescence was recorded by EnSpire plate reader (PerkinElmer).
For orientation: Cellular ATP, detected with luciferase, serves as a proxy for viable cell number.

In assay [1] the test system is HCC827-ASV cells (human EGFR exon 20 insertion mutant A769_D770insASV). Put plainly: Cell growth inhibition (CellTiter-Glo, 3 days) in HCC827-ASV. The note with it: 72 h, 3 days after administration.
Description: (§3) 1. Preparation of HCC827-SVD, HCC827-ASV and HCC827-YVMA Cell Lines
(§4) HCC827-ASV and HCC827-YVMA cell lines were generated in the similar approach as HCC827-SVD except that HCC827 cells (ATCC) were first transduced with lentiviral particles expressing codon-optimized human EGFR exon 20 insertion mutant A769_D770insASV and human ERBB2 exon20 insertion mutant A775_G776ins YVMA, respectively.
as §1, §2

Assay [2] deals with HCC827-SVD cells (human EGFR exon 20 insertion mutant D770_N771 insSVD). Description: Cell growth inhibition (CellTiter-Glo, 3 days) in HCC827-SVD. To be noted: 72 h, 3 days after administration. On the procedure:
as §3
HCC827-SVD cell line were generated by first transducing HCC827 cells (ATCC) with lentiviral particles expressing codon-optimized human EGFR exon 20 insertion mutant D770_N771 insSVD, and then selecting under 5 μg/ml purimycin treatment for a week.
The resulting cells were further transduced with lentiviral particles carrying EGFR sgRNA and CAS9 to knockout the endogenous alleles of EGFR, and then selected under 500 μg/ml hygromycin B treatment for two weeks. Single clone was subsequently generated by limiting dilution approach. Endogenous EGFR knockout was confirmed by Sanger sequencing of cell genomic DNA and expression of exogenous mutant EGFR was verified by Western blot analysis.
as §1, §2

The subject of another assay is A431 cells. Put plainly: Cell growth inhibition (CellTiter-Glo, 3 days) in A431. The note with it: Homo sapiens, A-431, 72 h, 3 days after administration. The procedure:
as §1, §2

Assay [3] has as its system HCC827-YVMA cells (human ERBB2 exon20 insertion mutant A775_G776ins YVMA). Put plainly: Cell growth inhibition (CellTiter-Glo, 3 days) in HCC827-YVMA. To be noted: 72 h, 3 days after administration.
Description: as §3, §4, §1, §2

Take `C=CC(=O)N1CCC(Nc2cc3c(Nc4ccc(Oc5ccn6ncnc6c5)c(Cl)c4)ncnc3cc2OC)CC1` [Compound 7, 1-(4-((4-((4-([1,2,4]triazolo[1,5-a]pyridin-7-yloxy)-3-chlorophenyl)amino)-7-methoxyquinazolin-6-yl)amino)piperidin-1-yl)prop-2-en-1-one]: the GI50 (in the assay with HCC827 cells; in assay [1]; in assay [2]; in the assay with A431 cells; in assay [3]) was less than 30 nM each time.

With `C=CC(=O)N1CC[C@H](Nc2cc3c(Nc4ccc(Oc5ccn(-c6cnc(OC)nc6)n5)cc4F)ncnc3cc2OC)C1` [Compound 8, (S)-1-(3-((4-((2-fluoro-4-((1-(2-methoxypyrimidin-5-yl)-1H-pyrazol-3-yl)oxy)phenyl)amino)-7-methoxyquinazolin-6-yl)amino)pyrrolidin-1-yl)prop-2-en-1-one], the concentration for 50% growth inhibition (GI50) lay within 100 to 300 nM in the assay with HCC827 cells; 100 to 300 nM in assay [1]; 30 to 60 nM in assay [2]; 300 to 600 nM with A431 cells; 30 to 60 nM in assay [3].

As to `C=CC(=O)N1CC[C@@H](Nc2cc3c(Nc4ccc(Oc5ccn(-c6cnc(OC)nc6)n5)cc4F)ncnc3cc2OC)C1` [Compound 9, (R)-1-(3-((4-((2-fluoro-4-((1-(2-methoxypyrimidin-5-yl)-1H-pyrazol-3-yl)oxy)phenyl)amino)-7-methoxyquinazolin-6-yl)amino)pyrrolidin-1-yl)prop-2-en-1-one], the GI50 (with HCC827 cells; in assay [1]; in assay [2]; in the assay on A431 cells; in assay [3]) was no less than 1000 nM each time.

On to `C=CC(=O)N1CCC(Nc2cc3c(Nc4ccc(Oc5ccn(-c6cnc(C)c(Cl)c6)n5)cc4F)ncnc3cc2OC)CC1` [Compound 10, 1-(4-((4-((4-((1-(5-chloro-6-methylpyridin-3-yl)-1H-pyrazol-3-yl)oxy)-2-fluorophenyl)amino)-7-methoxyquinazolin-6-yl)amino)piperidin-1-yl)prop-2-en-1-one], for which the GI50 with HCC827 cells is 30 to 60 nM; in assay [1], less than 30 nM; in assay [2] it was less than 30 nM; in the assay with A431 cells, 300 to 600 nM; in assay [3] it was less than 30 nM.

As for `C=CC(=O)N1CCC(Nc2cc3c(Nc4ccc(Oc5ccn(-c6cnc(C)c(C#N)c6)n5)cc4F)ncnc3cc2OC)CC1` [Compound 11, 5-(3-(4-((6-((1-acryloylpiperidin-4-yl)amino)-7-methoxyquinazolin-4-yl)amino)-3-fluorophenoxy)-1H-pyrazol-1-yl)-2-methylnicotinonitrile], the GI50 lay in the range of 60 to 100 nM with HCC827 cells; 30 to 60 nM in assay [1]; 30 to 60 nM in assay [2]; 100 to 300 nM in the assay with A431 cells; 60 to 100 nM in assay [3].

With `C=CC(=O)N1CCC(Nc2cc3c(Nc4ccc(Oc5ccn(-c6ccc(OC)nc6)n5)cc4F)ncnc3cc2OC)CC1` [Compound 12, 1-(4-((4-((2-fluoro-4-((1-(6-methoxypyridin-3-yl)-1H-pyrazol-3-yl)oxy)phenyl)amino)-7-methoxyquinazolin-6-yl)amino)piperidin-1-yl)prop-2-en-1-one], the 50% growth inhibitory concentration (GI50) was 30 to 60 nM in the assay with HCC827 cells; less than 30 nM in assay [1]; less than 30 nM in assay [2]; 100 to 300 nM in the assay on A431 cells; less than 30 nM in assay [3].

Consider `C=CC(=O)N1CCC(Nc2cc3c(Nc4ccc(Oc5ccn(-c6cnc(C)c(F)c6)n5)cc4F)ncnc3cc2OCC)CC1` [Compound 13, 1-(4-((7-ethoxy-4-((2-fluoro-4-((1-(5-fluoro-6-methylpyridin-3-yl)-1H-pyrazol-3-yl)oxy)phenyl)amino)quinazolin-6-yl)amino)piperidin-1-yl)prop-2-en-1-one], for which the GI50 with HCC827 cells was less than 30 nM; in assay [1], less than 30 nM; in assay [2], less than 30 nM; with A431 cells, 300 to 600 nM; in assay [3] it was less than 30 nM.

For `C=CC(=O)N1CCC(Nc2cc3c(Nc4ccc(Oc5ccn(-c6ccc(C)cn6)n5)cc4F)ncnc3cc2OC)CC1` [Compound 14], the 50% growth inhibitory concentration (GI50) fell in the range of 60 to 100 nM with HCC827 cells; 100 to 300 nM in assay [1]; 100 to 300 nM in assay [2]; 60 to 100 nM with A431 cells; 60 to 100 nM in assay [3].

For the molecule `C=CC(=O)N1CCC(Nc2cc3c(Nc4ccc(Oc5ccn(-c6cc(F)c(C)cn6)n5)cc4F)ncnc3cc2OC)CC1` [Compound 15, 1-(4-((4-((2-fluoro-4-((1-(4-fluoro-5-methylpyridin-2-yl)-1H-pyrazol-3-yl)oxy)phenyl)amino)-7-methoxyquinazolin-6-yl)amino)piperidin-1-yl)prop-2-en-1-one], the GI50 is 100 to 300 nM in the assay with HCC827 cells; 100 to 300 nM in assay [1]; 100 to 300 nM in assay [2]; 100 to 300 nM in the assay with A431 cells; 60 to 100 nM in assay [3].

`C=CC(=O)N1CCC(Nc2cc3c(Nc4ccc(Oc5ccn(-c6ccc(C)cn6)n5)c(Cl)c4)ncnc3cc2OC)CC1` [Compound 16]: the 50% growth inhibitory concentration (GI50) is less than 30 nM in the assay with HCC827 cells; less than 30 nM in assay [1]; less than 30 nM in assay [2]; 300 to 600 nM with A431 cells; less than 30 nM in assay [3].

`COc1cc2ncnc(Nc3ccc(Oc4ccn(-c5cnc(C)c(F)c5)n4)cc3F)c2cc1NC1CCN(C(=O)/C=C/CN(C)C)CC1` [Compound 21, (2E)-4-(dimethylamino)-1-[4-({4-[(2-fluoro-4-{[1-(5-fluoro-6-methylpyridin-3-yl)pyrazol-3-yl]oxy}phenyl)amino]-7-methoxyquinazolin-6-yl}amino)piperidin-1-yl]but-2-en-1-one]: the concentration for 50% growth inhibition (GI50) is no less than 1000 nM with HCC827 cells; no less than 1000 nM in assay [1]; no less than 1000 nM in assay [2]; no less than 1000 nM with A431 cells; 300 to 600 nM in assay [3].

As to `C=CC(=O)N1CCC(Nc2cc3c(Nc4ccc(Oc5ccn(-c6nc(OC)nc(OC)n6)n5)cc4F)ncnc3cc2OC)CC1` [Compound 31, 1-(4-((4-((4-((1-(4,6-dimethoxy-1,3,5-triazin-2-yl)-1H-pyrazol-3-yl)oxy)-2-fluorophenyl)amino)-7-methoxyquinazolin-6-yl)amino)piperidin-1-yl)prop-2-en-1-one], the GI50 with HCC827 cells was less than 30 nM; in assay [1], 30 to 60 nM; in assay [2] it was 30 to 60 nM; with A431 cells, less than 30 nM; in assay [3], less than 30 nM.

On to `C=CC(=O)N1CCC(Nc2cc3c(Nc4ccc(Oc5ccnc(-c6cnn(C)c6)c5)cc4F)ncnc3cc2OC)CC1` [Compound 34, 1-(4-((4-((2-fluoro-4-((2-(1-methyl-1H-pyrazol-4-yl)pyridin-4-yl)oxy)phenyl)amino)-7-methoxyquinazolin-6-yl)amino)piperidin-1-yl)prop-2-en-1-one], for which the GI50 was 600 to 1000 nM with HCC827 cells; 60 to 100 nM in assay [1]; 30 to 60 nM in assay [2]; no less than 1000 nM in the assay with A431 cells; 60 to 100 nM in assay [3].

Turning to `C=CC(=O)N1CCC(Nc2cc3c(Nc4ccc(Oc5ccnc(N6CCOCC6)c5)cc4F)ncnc3cc2OC)CC1` [Compound 35, 1-(4-((4-((2-fluoro-4-((2-morpholinopyridin-4-yl)oxy)phenyl)amino)-7-methoxyquinazolin-6-yl)amino)piperidin-1-yl)prop-2-en-1-one], the GI50 is 100 to 300 nM with HCC827 cells; less than 30 nM in assay [1]; less than 30 nM in assay [2]; no less than 1000 nM in the assay on A431 cells; less than 30 nM in assay [3].

For `C=CC(=O)N1CCC(Nc2cc3c(Nc4ccc(Oc5ccnc(-c6cscn6)c5)cc4F)ncnc3cc2OC)CC1` [Compound 41, 1-(4-((4-((2-fluoro-4-((2-(thiazol-4-yl)pyridin-4-yl)oxy)phenyl)amino)-7-methoxyquinazolin-6-yl)amino)piperidin-1-yl)prop-2-en-1-one], the GI50 was 60 to 100 nM in the assay on HCC827 cells; less than 30 nM in assay [1]; less than 30 nM in assay [2]; 300 to 600 nM with A431 cells; less than 30 nM in assay [3].

Turning to `C=CC(=O)N1CCC(Nc2cc3c(Nc4ccc(Oc5cc(-c6nc(C)no6)ccn5)cc4F)ncnc3cc2OC)CC1` [Compound 44, 1-(4-((4-((2-fluoro-4-((4-(3-methyl-1,2,4-oxadiazol-5-yl)pyridin-2-yl)oxy)phenyl)amino)-7-methoxyquinazolin-6-yl)amino)piperidin-1-yl)prop-2-en-1-one], the GI50 with HCC827 cells is 30 to 60 nM; in assay [1] it was 30 to 60 nM; in assay [2] it was 30 to 60 nM; in the assay on A431 cells, 100 to 300 nM; in assay [3], less than 30 nM.
